Peptide text beside a SMILES is read from it. * marks the point of attachment. Cbz = O=C(OCc1ccccc1)*; OtBu = CC(C)(C)O*
Experiments:
caspase-1 like activity = test: Caspase activity in lysates of treated HUE cells, substrate Ac-YVAD-AMC; type: cell-based, human; conditions: HUE cell lysates, 50 µM, throughout the time course
Method: Detection of a caspase-3-like activity in lysates of PSI-treated HUE cells. […] The specific caspase activities are shown as pmol of substrate hydrolyzed/min per µg of protein.
HUE cells (8 x 10^5) were plated onto 10 cm plastic dishes, allowed to attach overnight, and inhibitors were added to a final concentration of 50 µM for the times indicated in Fig. 4. DMSO, which served as the vehicle, was added to a final concentration of 0.1%. Floating and adherent cells were then harvested, lysed in Buffer I (1% Triton X100, 10 mM KCl, 20 mM HEPES pH 7.4, 1.5 mM MgCl2, 0.2 mM EGTA, 1 mM PMSF), snap frozen in liquid nitrogen and stored at -80°C until required. Lysates were centrifuged at 13000 g for 5 min at 4°C, the supernatants collected and protein concentrations determined using the BCA assay. A 40 µl aliquot of each sample was assayed in the presence of 20 µM Ac-DEVD-AMC or Ac-YVAD-AMC substrates (Bachem, Heidelberg, Germany) in Buffer II (50 mM PIPES-KOH pH 7.0, 0.1 mM EDTA, 1 mM DTT, 10% glycerol; total volume 250 µl) for 40 min at 37°C and the fluorescence intensity was measured with an excitation wavelength of 350 nm and emission wavelength of 430 nm. […] Specific activity was expressed as pmol AMC liberated per min and per µg protein in comparison to a standard curve calculated from the amount of free AMC (SIGMA, Deisenhofen, Germany).

[1] = system: subconfluent primary BAE cells; test: Apoptotic morphology (phase contrast, Hoechst 33342), BAE cells; type: cell-based, bovine; conditions: subconfluent BAE cells; 50 µM for 15 - 24 h, or 10 µM after 48 hours

## CC[C@H](C)[C@H](NC(=O)OCc1ccccc1)C(=O)N[C@@H](CCC(=O)OC(C)(C)C)C(=O)N[C@@H](C)C(=O)N[C@H](C=O)CC(C)C [PSI, carbobenzoxy-L-isoleucyl-y-t-butyl-L-glutamyl-L-alanyl-L-leucinal] (Cbz-IE(OtBu)AL-aldehyde)
caspase-1 like activity
  caspase-1 like activity: could not be detected
[1]
  morphological changes associated with programmed cell death: cytoplasmic shrinkage and bleb formation as well as extensive nuclear condensation and fragmentation

Reference: patent EP1053750A1, “Use of proteasome-inhibitor for the induction of programmed cell death (apoptosis)” (Max-Planck-Gesellschaft zur Förderung der Wissenschaften …, priority 1999, dated 2000)
